Experimental data from US20230365561A1, “BETA-LACTAMASE INHIBITORS AND THEIR PREPARATION” (NINGXIA ACADEMY OF AGRICUL TURE AND FORESTRY SCIENCES, priority 2020, published 2023).
Structures can show the parent of a compound that is named as a salt.

What was measured:
Format in all cases: cell-based
[1] = tested on: E. cloacae clinical isolate (strain 5); assay: MIC by broth microdilution (alone and in combination with meropenam), strain 5; settings: Enterobacter cloacae, compound alone, read-out: MIC, antibacterial activity of example alone
Protocol: (§1) Compounds of the present invention alone, meropenam (MER) alone, and as a combination with test antibiotic (meropenam) were tested for antimicrobial activity by determing minimum inhibitory concentration (MIC, mg/L) using the broth microdilution method according to the guidelines of the Clinical Laboratories and Stansards Insitute (“Methods for Dilution Antimicrobial Suscetibility Tests for Bacterial that Grow Aerobiclly”, Approved standard, […]., Clinical and Laboratories Stanards Institute (CLSI) Document M7-A8, Wayne, Pa., USA, 2009). Meropenam as a test antibiotic compound was dissolved in DMSO. Meropenam was then diluted in microbial growth medium (Mueller-Hinton Broth II, cation adjusted) resulting in a final concention range of 0.125-64 mg/L in serial two-fold dilution. In all cases the filnal DMSO concentraion was less than 0.5%. Bacteria were added to 96-well microtitre plates containing the serial two-fold dilutions of the compoumds; the final cell density was appoximately 5x10^5 colony forming units/mL (CFU/mL). Plates were incubated at 37° C. for 18-24 hours and read visually. The MIC, i.e. the lowest concentration of the test compound that inhibited visible growth of the bacteria, was recorded. The same assay conditions were used when the compounds of present invention alone, and as a combination with test meropenam antibiotic compound was tested for minmum inhibitory concentration (MIC, mg/L). Whileest meropenam was serially diluted as descrribed above, a constant concentration of the present invention of 4 µg/mL was used.
(§2) Bacterial strains that were used to evaluate the antimicrobial activity using the MIC determination included but were not limited to E. coli clinical isolate (strain 1), E. coli 8739 (strain 2), K. pneumoniae clinical isolate (strain 3), K. pneumoniae 700603 (strain 4), E. cloacae clinical isolate (strain 5), E. cloacae 700323 (strain 6), A. baumannii clinical isolate (strain 7), A. baumannii 19606 (strain 8), P. aeruginosa clinical isolate (strain 9), P. aeruginosa 9027 (strain 10).

[2] = tested on: A. baumannii clinical isolate (strain 7); assay: MIC by broth microdilution (alone and in combination with meropenam), strain 7; settings: Acinetobacter baumannii, compound alone, read-out: MIC, antibacterial activity of example alone
Protocol: as §1, §2

[3] = tested on: E. coli clinical isolate (strain 1); assay: MIC by broth microdilution (alone and in combination with meropenam), strain 1; settings: Escherichia coli, compound alone, read-out: MIC, antibacterial activity of example alone
Protocol: as §1, §2

[4] = tested on: K. pneumoniae clinical isolate (strain 3); assay: MIC by broth microdilution (alone and in combination with meropenam), strain 3; settings: Klebsiella pneumoniae, compound alone, read-out: MIC, antibacterial activity of example alone
Protocol: as §1, §2

[5] = tested on: E. cloacae 700323 (strain 6); assay: MIC by broth microdilution (alone and in combination with meropenam), strain 6; settings: Enterobacter cloacae, compound alone, read-out: MIC, antibacterial activity of example alone
Protocol: as §1, §2

E. coli 8739 (strain 2) = assay: MIC by broth microdilution (alone and in combination with meropenam), strain 2; settings: Escherichia coli, compound alone, read-out: MIC, antibacterial activity of example alone
Protocol: as §1, §2

[6] = tested on: K. pneumoniae 700603 (strain 4); assay: MIC by broth microdilution (alone and in combination with meropenam), strain 4; settings: Klebsiella pneumoniae, compound alone, read-out: MIC, antibacterial activity of example alone
Protocol: as §1, §2

[7] = tested on: P. aeruginosa clinical isolate (strain 9); assay: MIC by broth microdilution (alone and in combination with meropenam), strain 9; settings: Pseudomonas aeruginosa, compound alone, read-out: MIC, antibacterial activity of example alone
Protocol: as §1, §2

[8] = tested on: A. baumannii 19606 (strain 8); assay: MIC by broth microdilution (alone and in combination with meropenam), strain 8; settings: Acinetobacter baumannii, compound alone, read-out: MIC, antibacterial activity of example alone
Protocol: as §1, §2

[9] = tested on: P. aeruginosa 9027 (strain 10); assay: MIC by broth microdilution (alone and in combination with meropenam), strain 10; settings: Pseudomonas aeruginosa, compound alone, read-out: MIC, antibacterial activity of example alone
Protocol: as §1, §2

Measured: MIC

CC(C)(C)OC(=O)N1CCC(C(=O)NC(=N)[C@@H]2CC[C@@H]3CN2C(=O)N3OS(=O)(=O)[O-])CC1.[Na+] [Ex.14, Sodium (2S,5R)-2-(N-(1-(tert-butoxycarbonyl)piperidine-4-carbonyl)carbamimidoyl)-7-oxo-1,6-diazabicyclo[3.2.1]octan-6-yl Sulfate]
> 64 µg/mL: all assays above

N=C(NC(=O)c1cncnc1)[C@@H]1CC[C@@H]2CN1C(=O)N2OS(=O)(=O)O [Ex.10, Sodium (2S,5R)-7-oxo-2-(N-(pyrimidine-5-carbonyl)carbamimidoyl)-1,6-diazabicyclo[3.2.1]octan-6-yl Sulfate]
> 64 µg/mL: all assays above

N=C(NC(=O)CC1CCOCC1)[C@@H]1CC[C@@H]2CN1C(=O)N2OS(=O)(=O)[O-].[Na+] [Ex.38, Sodium (2S,5R)-7-oxo-2-(N-(2-(tetrahydro-2H-pyran-4-yl)acetyl)carbamimidoyl)-1,6-diazabicyclo[3.2.1]octan-6-yl Sulfate]
> 64 µg/mL: all assays above

N=C(NC(=O)c1cccnn1)[C@@H]1CC[C@@H]2CN1C(=O)N2OS(=O)(=O)O [Ex.12, (2S,5R)-7-oxo-2-(N-(pyridazine-3-carbonyl)carbamimidoyl)-1,6-diazabicyclo[3.2.1]octan-6-yl Hydrogen Sulfate]
> 64 µg/mL: all assays above

N=C(NC(=O)CN1CCCCC1)[C@@H]1CC[C@@H]2CN1C(=O)N2OS(=O)(=O)[O-].[Na+] [Ex.35, Sodium (2S,5R)-7-oxo-2-(N-(2-(piperidin-1-yl)acetyl)carbamimidoyl)-1,6-diazabicyclo[3.2.1]octan-6-yl Sulfate]
> 64 µg/mL: all assays above

N=C(NC(=O)Cc1ncccn1)[C@@H]1CC[C@@H]2CN1C(=O)N2OS(=O)(=O)[O-].[Na+] [Ex.25, Sodium (2S,5R)-7-oxo-2-(N-(2-(pyrimidin-2-yl)acetyl)carbamimidoyl)-1,6-diazabicyclo[3.2.1]octan-6-yl Sulfate]
> 64 µg/mL: all assays above

N=C(NC(=O)c1cscn1)[C@@H]1CC[C@@H]2CN1C(=O)N2OS(=O)(=O)[O-].[Na+] [Ex.16, Sodium (2S,5R)-7-oxo-2-(N-(thiazole-4-carbonyl)carbamimidoyl)-1,6-diazabicyclo[3.2.1]octan-6-yl Sulfate]
> 64 µg/mL: all assays above

CC(=O)N1CCC[C@H](C(=O)NC(=N)[C@@H]2CC[C@@H]3CN2C(=O)N3OS(=O)(=O)[O-])C1.[Na+] [Ex.26, Sodium (2S,5R)-2-(N-((S)-1-acetylpiperidine-3-carbonyl)carbamimidoyl)-7-oxo-1,6-diazabicyclo[3.2.1]octan-6-yl Sulfate]
> 64 µg/mL: all assays above

N=C(NC(=O)c1csc(C(F)(F)F)n1)[C@@H]1CC[C@@H]2CN1C(=O)N2OS(=O)(=O)[O-].[Na+] [Ex.24, Sodium (2S,5R)-7-oxo-2-(N-(2-(trifluoromethyl)thiazole-4-carbonyl)carbamimidoyl)-1,6-diazabicyclo[3.2.1]octan-6-yl Sulfate]
> 64 µg/mL: all assays above

N=C(NC(=O)c1nc(N)cs1)[C@@H]1CC[C@@H]2CN1C(=O)N2OS(=O)(=O)[O-].[Na+] [Ex.22, Sodium (2S,5R)-2-(N-(4-aminothiazole-2-carbonyl)carbamimidoyl)-7-oxo-1,6-diazabicyclo[3.2.1]octan-6-yl Sulfate]
> 64 µg/mL: all assays above

N=C(NC(=O)c1nc(-c2ccccc2)cs1)[C@@H]1CC[C@@H]2CN1C(=O)N2OS(=O)(=O)[O-].[Na+] [Ex.44, Sodium (2S,5R)-7-oxo-2-(N-(4-phenylthiazole-2-carbonyl)carbamimidoyl)-1,6-diazabicyclo[3.2.1]octan-6-yl Sulfate]
> 64 µg/mL: all assays above
